Measurements taken from paper PMC11995724, “Antibiotic target discovery by integrated phenotypic and activity-based profiling of electrophilic fragments” (Cell chemical biology, 2025).
Structures can show the parent of a compound that is named as a salt.

experiment: in vitro; settings: human, hek293t cells

Structure (SMILES)	viability at 48 h, 25 µM [%]
O=C(CCl)NCc1ccc(Cl)c(C(F)(F)F)c1 [7-D22, 2-chloro-N-{[4-chloro-3-(trifluoromethyl)phenyl]methyl}acetamide]	0.676
CC(Cl)C(=O)NCCc1nnc(C(C)C)s1 (centres unmarked) [7-E03, 2-chloro-N-{2-[5-(propan-2-yl)-1,3,4-thiadiazol-2-yl]ethyl}propanamide]	123
COc1ccc2c(c1)OCCN(C(=O)C(C)Cl)C2 (centres unmarked) [7-E04, 2-chloro-1-(8-methoxy-2,3,4,5-tetrahydro-1,4-benzoxazepin-4-yl)propan-1-one]	122
CC(Cl)C(=O)N(Cc1nc(C2CCCCCC2)no1)C1CC1 (centres unmarked) [7-E05, 2-chloro-N-[(3-cycloheptyl-1,2,4-oxadiazol-5-yl)methyl]-N-cyclopropylpropanamide]	78.1
CC(Cl)C(=O)NC1CCc2ccccc2-n2ccnc21 (centres unmarked) [7-E06, 2-chloro-N-{2,5-diazatricyclo[8.4.0.0,2,6]tetradeca-1(14),3,5,10,12-pentaen-7-yl}propanamide]	88.2
CC(Cl)C(=O)N1CCN(C(=O)c2ccc3ccccc3c2)CC1 (centres unmarked) [7-E07, 2-chloro-1-[4-(naphthalene-2-carbonyl)piperazin-1-yl]propan-1-one]	96.2
COc1ccc2ccccc2c1-c1cc(CNC(=O)C(C)Cl)on1 (centres unmarked) [7-E08, 2-chloro-N-{[3-(2-methoxynaphthalen-1-yl)-1,2-oxazol-5-yl]methyl}propanamide]	87.9
Cc1csc(CN(CC2CCCO2)C(=O)C(C)Cl)n1 (centres unmarked) [7-E09, 2-chloro-N-[(4-methyl-1,3-thiazol-2-yl)methyl]-N-[(oxolan-2-yl)methyl]propanamide]	94.1
Cc1noc(C23CC(CN2C(=O)C(C)Cl)C3)n1 (centres unmarked) [7-E10, 2-chloro-1-[1-(3-methyl-1,2,4-oxadiazol-5-yl)-2-azabicyclo[2.1.1]hexan-2-yl]propan-1-one]	93.2
CC(Cl)C(=O)N1CCn2cccc2C1c1ccccc1 (centres unmarked) [7-E11, 2-chloro-1-{1-phenyl-1H,2H,3H,4H-pyrrolo[1,2-a]pyrazin-2-yl}propan-1-one]	97.1
CC(Cl)C(=O)NC(Cc1ccccc1)c1ncco1 (centres unmarked) [7-E12, 2-chloro-N-[1-(1,3-oxazol-2-yl)-2-phenylethyl]propanamide]	84.4
CC(Cl)C(=O)NC1CCN(CC(=O)Nc2ccccc2)CC1 (centres unmarked) [7-E13, 2-chloro-N-{1-[(phenylcarbamoyl)methyl]piperidin-4-yl}propanamide]	85.2
CC(Cl)C(=O)N(Cc1cccs1)[C@@H]1C=C[C@H](CO)C1 (stereo partly drawn) [7-E14, 2-chloro-N-[(1S,4R)-4-(hydroxymethyl)cyclopent-2-en-1-yl]-N-[(thiophen-2-yl)methyl]propanamide]	87.9
CC(Cl)C(=O)NC(C)(C)c1cccc(Cl)c1F (centres unmarked) [7-E15, 2-chloro-N-[2-(3-chloro-2-fluorophenyl)propan-2-yl]propanamide]	91.2
CC(Cl)C(=O)NC1c2cc(F)ccc2CC1C (centres unmarked) [7-E16, 2-chloro-N-(6-fluoro-2-methyl-2,3-dihydro-1H-inden-1-yl)propanamide]	74.7
CC(Cl)C(=O)NCCC1(C)OCCO1 (centres unmarked) [7-E17, 2-chloro-N-[2-(2-methyl-1,3-dioxolan-2-yl)ethyl]propanamide]	82.4
CC(Cl)C(=O)N1CCC(N(C)Cc2cc(=O)[nH]c(N(C)C)n2)C1 (centres unmarked) [7-E18, 6-({[1-(2-chloropropanoyl)pyrrolidin-3-yl](methyl)amino}methyl)-2-(dimethylamino)-3,4-dihydropyrimidin-4-one]	72.3
CC(Cl)C(=O)N1CCCC1Cc1cccc(F)c1F (centres unmarked) [7-E19, 2-chloro-1-{2-[(2,3-difluorophenyl)methyl]pyrrolidin-1-yl}propan-1-one]	61.3
CC(Cl)C(=O)N1CCN(C(=O)Cc2cccc(Cl)c2)C(C)C1 (centres unmarked) [7-E20, 2-chloro-1-{4-[2-(3-chlorophenyl)acetyl]-3-methylpiperazin-1-yl}propan-1-one]	65.1
CC(Cl)C(=O)NCCNC(=O)c1ccoc1 (centres unmarked) [7-E21, 2-chloro-N-{2-[(furan-3-yl)formamido]ethyl}propanamide]	90.5
CC1CN(C(=O)c2ccc(NC(=O)C(C)Cl)cc2)CC(C)O1 (centres unmarked) [7-E22, 2-chloro-N-[4-(2,6-dimethylmorpholine-4-carbonyl)phenyl]propanamide]	79.1
O=C(CCl)NC(c1ccccc1)C1CC1c1ccncc1 (centres unmarked) [7-F03, 2-chloro-N-{phenyl[2-(pyridin-4-yl)cyclopropyl]methyl}acetamide hydrochloride]	0.921
Cc1cccc(Cl)c1CCCNC(=O)CCl [7-F04, 2-chloro-N-[3-(2-chloro-6-methylphenyl)propyl]acetamide]	0.614
CC(Cl)C(=O)NCCN(C)S(=O)(=O)c1cccs1 (centres unmarked) [7-F05, 2-chloro-N-[2-(N-methylthiophene-2-sulfonamido)ethyl]propanamide]	97.9
CC(CO)(Cc1ccc(F)cc1)NC(=O)CCl (centres unmarked) [7-F06, 2-chloro-N-{2-[(4-fluorophenyl)methyl]-1-hydroxypropan-2-yl}acetamide]	3.71

Structure (SMILES)	viability at 48 h, 25 µM [%]
CCC1CN(CCn2cccn2)CCN1C(=O)C(C)Cl (centres unmarked) [7-F07, 2-chloro-1-{2-ethyl-4-[2-(1H-pyrazol-1-yl)ethyl]piperazin-1-yl}propan-1-one]	98.7
Cc1nc(C(NC(=O)CCl)c2ccccc2)no1 (centres unmarked) [7-F08, 2-chloro-N-[(5-methyl-1,2,4-oxadiazol-3-yl)(phenyl)methyl]acetamide]	1.04
CC(Cl)C(=O)NCCc1nc(C2CCCCC2)cs1 (centres unmarked) [7-F09, 2-chloro-N-[2-(4-cyclohexyl-1,3-thiazol-2-yl)ethyl]propanamide]	84.8
O=C(CCl)NC1COc2ncccc21 (centres unmarked) [7-F10, 2-chloro-N-{2H,3H-furo[2,3-b]pyridin-3-yl}acetamide]	53.7
CC(Cl)C(=O)N1Cc2ccccc2OCC1C (centres unmarked) [7-F11, 2-chloro-1-(3-methyl-2,3,4,5-tetrahydro-1,4-benzoxazepin-4-yl)propan-1-one]	86.6
Cc1nc2n(n1)CCCC2NC(=O)CCl (centres unmarked) [7-F12, 2-chloro-N-{2-methyl-5H,6H,7H,8H-[1,2,4]triazolo[1,5-a]pyridin-8-yl}acetamide]	58.1
CC(Cl)C(=O)N1CCN(Cc2cnn(-c3ccccc3)c2)CC1 (centres unmarked) [7-F13, 2-chloro-1-{4-[(1-phenyl-1H-pyrazol-4-yl)methyl]piperazin-1-yl}propan-1-one]	93
CC(c1ccc(C(F)(F)F)c(Cl)c1)N(C)C(=O)CCl (centres unmarked) [7-F14, 2-chloro-N-{1-[3-chloro-4-(trifluoromethyl)phenyl]ethyl}-N-methylacetamide]	0.626
Cc1cc(C)n(C2CN(C(=O)C(C)Cl)C2)n1 (centres unmarked) [7-F15, 2-chloro-1-[3-(3,5-dimethyl-1H-pyrazol-1-yl)azetidin-1-yl]propan-1-one]	85.3
C[C@@H](NC(=O)CCl)c1cnnn1C [7-F16, 2-chloro-N-[(1R)-1-(1-methyl-1H-1,2,3-triazol-5-yl)ethyl]acetamide]	44.8
CC(Cl)C(=O)NC1CCCCC1n1cccn1 (centres unmarked) [7-F17, 2-chloro-N-[2-(1H-pyrazol-1-yl)cyclohexyl]propanamide]	97.9
Cc1ccc(C)n1C1CCC(NC(=O)CCl)CC1 (centres unmarked) [7-F18, 2-chloro-N-[4-(2,5-dimethyl-1H-pyrrol-1-yl)cyclohexyl]acetamide]	106
CC(Cl)C(=O)N1CCCC1c1nc(N(C)C)no1 (centres unmarked) [7-F19, 2-chloro-1-{2-[3-(dimethylamino)-1,2,4-oxadiazol-5-yl]pyrrolidin-1-yl}propan-1-one]	77.6
O=C(CCl)NC1CCCc2c1cnn2Cc1ccccc1 (centres unmarked) [7-F20, N-(1-benzyl-4,5,6,7-tetrahydro-1H-indazol-4-yl)-2-chloroacetamide]	0.873
Cc1nn(C)c(NC(=O)C(C)Cl)c1-c1ccccc1 (centres unmarked) [7-F21, 2-chloro-N-(1,3-dimethyl-4-phenyl-1H-pyrazol-5-yl)propanamide]	84.5
O=C(CCl)NC(c1cc(F)ccc1F)C(F)F (centres unmarked) [7-F22, 2-chloro-N-[1-(2,5-difluorophenyl)-2,2-difluoroethyl]acetamide]	0.697
CNC(=O)c1cc(OC2CCN(C(=O)C(C)Cl)C2)ccn1 (centres unmarked) [7-G03, 4-{[1-(2-chloropropanoyl)pyrrolidin-3-yl]oxy}-N-methylpyridine-2-carboxamide]	111
Cc1noc(C2CN(C(=O)C(C)Cl)C2)n1 (centres unmarked) [7-G04, 2-chloro-1-[3-(3-methyl-1,2,4-oxadiazol-5-yl)azetidin-1-yl]propan-1-one]	92.2
CC(Cl)C(=O)N1CC(S(=O)(=O)Nc2ccccc2)C1 (centres unmarked) [7-G05, 1-(2-chloropropanoyl)-N-phenylazetidine-3-sulfonamide]	102
CC(Cl)C(=O)N1CCCN2c3ccccc3CC2C1 (centres unmarked) [7-G06, 1-{1H,2H,3H,4H,5H,11H,11aH-[1,4]diazepino[1,2-a]indol-2-yl}-2-chloropropan-1-one]	96.3
CCOc1cccc(N2CCN(C(=O)C(C)Cl)CC2)n1 (centres unmarked) [7-G07, 2-chloro-1-[4-(6-ethoxypyridin-2-yl)piperazin-1-yl]propan-1-one]	83.5
CCn1cc(C2CN(C(=O)C(C)Cl)CCO2)cn1 (centres unmarked) [7-G08, 2-chloro-1-[2-(1-ethyl-1H-pyrazol-4-yl)morpholin-4-yl]propan-1-one]	89.1
CC(Cl)C(=O)NC(C)c1ccc(C(F)(F)F)nc1Cl (centres unmarked) [7-G09, 2-chloro-N-{1-[2-chloro-6-(trifluoromethyl)pyridin-3-yl]ethyl}propanamide]	83.5
CC(Cl)C(=O)N1CCN(c2nccc3sccc23)CC1 (centres unmarked) [7-G10, 2-chloro-1-(4-{thieno[3,2-c]pyridin-4-yl}piperazin-1-yl)propan-1-one]	83.5
CC(Cl)C(=O)N(Cc1ccsc1)C1CC1 (centres unmarked) [7-G11, 2-chloro-N-cyclopropyl-N-[(thiophen-3-yl)methyl]propanamide]	86.9
